From ChEMBL document CHEMBL1201861, “Genomics of Drug Sensitity in Cancer screening data, Wellcome Trust Sanger Institute”

Assays:
Assay in all cases: cells
ES3 = format: functional, cell-based, Homo sapiens; settings: Homo sapiens, ES3;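 further: growth inhibition of ES3 cells, read out with a cell viability assay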
Ramos-2G6-4C10 = format: functional, cell-based; settings: Homo sapiens;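 further: growth inhibition of the cell line, measured by a cell viability read-out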
Description: SANGER: Inhibition of human Ramos-2G6-4C10 cell growth in a cell viability assay.

KP-N-YN = format: functional, cell-based; settings: Homo sapiens;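 further: growth inhibition of KP-N-YN cells, read out with a cell viability assay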
Description: SANGER: Inhibition of human KP-N-YN cell growth in a cell viability assay.

NCI-H1838 = format: functional, cell-based, Homo sapiens; settings: Homo sapiens, NCI-H1838;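 further: growth inhibition of NCI-H1838 cells, determined with a cell viability readout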
Description: SANGER: Inhibition of human NCI-H1838 cell growth in a cell viability assay.

SK-NEP-1 = format: functional, cell-based; settings: Homo sapiens;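 further: growth inhibition of human SK-NEP-1 cells, read out by a cell viability assay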
Description: SANGER: Inhibition of human SK-NEP-1 cell growth in a cell viability assay.

KNS-42 = format: functional, cell-based, Homo sapiens; settings: Homo sapiens, KNS-42;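 further: growth inhibition of KNS-42 cells, read out with a cell viability assay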
Description: SANGER: Inhibition of human KNS-42 cell growth in a cell viability assay.

HOP-62 = format: functional, cell-based, Homo sapiens; settings: Homo sapiens, HOP-62;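 further: cell growth inhibition determined with a viability assay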
Description: SANGER: Inhibition of human HOP-62 cell growth in a cell viability assay.

HL-60 = format: functional, cell-based; settings: Homo sapiens;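 further: growth inhibition of human HL-60 cells, read out with a cell viability assay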
Description: SANGER: Inhibition of human HL-60 cell growth in a cell viability assay.

BT-474 = format: functional, cell-based, Homo sapiens; settings: Homo sapiens, BT-474
Description: SANGER: Inhibition of human BT-474 cell growth in a cell viability assay.

A101D = format: functional, cell-based, Homo sapiens; settings: Homo sapiens, A101D;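 further: growth inhibition of the cell line, measured with a viability assay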
Description: SANGER: Inhibition of human A101D cell growth in a cell viability assay.

OMC-1 = format: functional, cell-based, Homo sapiens; settings: Homo sapiens, OMC-1;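 further: growth inhibition of the OMC-1 cell line, measured by a cell viability assay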
Description: SANGER: Inhibition of human OMC-1 cell growth in a cell viability assay.

NB10 = format: functional, cell-based, Homo sapiens; settings: Homo sapiens, NB10;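 further: growth inhibition of NB10 cells, read out by a cell viability assay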
Description: SANGER: Inhibition of human NB10 cell growth in a cell viability assay.

SK-UT-1 = format: functional, cell-based, Homo sapiens; settings: Homo sapiens, SK-UT-1;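 further: growth inhibition of SK-UT-1 cells, measured by a cell viability assay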
Description: SANGER: Inhibition of human SK-UT-1 cell growth in a cell viability assay.

BE-13 = format: functional, cell-based; settings: Homo sapiens;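 further: growth inhibition of human BE-13 cells, measured with a cell viability assay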
Description: SANGER: Inhibition of human BE-13 cell growth in a cell viability assay.

OVCAR-4 = format: functional, cell-based, Homo sapiens; settings: Homo sapiens, OVCAR-4;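 further: growth inhibition of human OVCAR-4 cells, measured with a cell viability assay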
Description: SANGER: Inhibition of human OVCAR-4 cell growth in a cell viability assay.

U-266 = format: functional, cell-based; settings: Homo sapiens
Description: SANGER: Inhibition of human U-266 cell growth in a cell viability assay.

LS-1034 = format: functional, cell-based, Homo sapiens; settings: Homo sapiens, LS-1034
Description: SANGER: Inhibition of human LS-1034 cell growth in a cell viability assay.

DOHH-2 = format: functional, cell-based; settings: Homo sapiens;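 further: growth inhibition of human DOHH-2 cells, read out with a cell viability assay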
Description: SANGER: Inhibition of human DOHH-2 cell growth in a cell viability assay.

SMILES | IC50 (ES3) [µM] | IC50 (Ramos-2G6-4C10) [µM] | IC50 (KP-N-YN) [µM] | IC50 (NCI-H1838) [µM] | IC50 (SK-NEP-1) [µM] | IC50 (KNS-42) [µM] | IC50 (HOP-62) [µM] | IC50 (HL-60) [µM] | IC50 (BT-474) [µM] | IC50 (A101D) [µM] | IC50 (OMC-1) [µM] | IC50 (NB10) [µM] | IC50 (SK-UT-1) [µM] | IC50 (BE-13) [µM] | IC50 (OVCAR-4) [µM] | IC50 (U-266) [µM] | IC50 (LS-1034) [µM] | IC50 (DOHH-2) [µM]
C=C1C(=O)O[C@@H]2C3O[C@]3(C)CC/C=C(\C)CC[C@@H]12 (stereo not given in full) | > 5 | > 5 | > 5 | > 5 | > 5 | > 5 | > 5 | > 5 | > 5 | > 5 | > 5 | > 5 | > 5 | > 5 | > 5 | > 5 | > 5 | > 5
CC1=C2C[C@H]3[C@@H](CC=C4C[C@@H](O)CC[C@@]43C)[C@@H]2CC[C@]12O[C@@H]1C[C@H](C)CN[C@H]1[C@H]2C [CYCLOPAMINE] | > 16 | > 16 | > 16 | > 16 | > 16 | > 16 | > 16 | > 16 | > 16 | > 16 | > 16 | > 16 | > 16 | > 16 | > 16 | > 16 | > 16 | 9.36
CS(=O)(=O)CCNCc1ccc(-c2ccc3ncnc(Nc4ccc(OCc5cccc(F)c5)c(Cl)c4)c3c2)o1 [LAPATINIB] | > 2 | > 2 | – | > 2 | > 2 | > 2 | > 2 | > 2 | 0.213 | > 2 | > 2 | > 2 | > 2 | > 2 | > 2 | > 2 | > 2 | > 2
CCc1nc(N)nc(N)c1-c1ccc(Cl)cc1 [PYRIMETHAMINE] | > 20 | 5.64 | > 20 | > 20 | 1.24 | > 20 | 5.02 | > 20 | > 20 | > 20 | > 20 | > 20 | > 20 | 7.77 | 4.15 | 5.13 | 18.3 | > 20
O=C(/C=C/c1ccccc1)NC(NC(=S)Nc1cccc2cccnc12)C(Cl)(Cl)Cl (stereo not given) [SALUBRINAL] | > 16 | 9.9 | > 16 | > 16 | > 16 | > 16 | > 16 | 13.3 | > 16 | 13.8 | > 16 | > 16 | > 16 | 8.27 | 14.8 | > 16 | > 16 | 10.2
CN1CCN(CCOc2cc(OC3CCOCC3)c3c(Nc4c(Cl)ccc5c4OCO5)ncnc3c2)CC1 [SARACATINIB] | > 2 | > 2 | – | > 2 | > 2 | > 2 | 1.5 | > 2 | > 2 | > 2 | > 2 | > 2 | > 2 | > 2 | > 2 | > 2 | > 2 | 1.72
CO[C@H]1C[C@@H]2CC[C@@H](C)[C@@](O)(O2)C(=O)C(=O)N2CCCC[C@H]2C(=O)O[C@H]([C@H](C)C[C@@H]2CC[C@@H](O)[C@H](OC)C2)CC(=O)[C@H](C)/C=C(\C)[C@@H](O)[C@@H](OC)C(=O)[C@H](C)C[C@H](C)/C=C/C=C/C=C/1C [SIROLIMUS] | > 0.1 | 0.00146 | – | > 0.1 | 0.00879 | > 0.1 | > 0.1 | > 0.1 | > 0.1 | 0.0326 | > 0.1 | > 0.1 | 0.0168 | 0.00299 | > 0.1 | > 0.1 | > 0.1 | 0.00335
CNC(=O)c1cc(Oc2ccc(NC(=O)Nc3ccc(Cl)c(C(F)(F)F)c3)cc2)ccn1 [SORAFENIB] | > 4 | > 4 | > 4 | > 4 | > 4 | > 4 | 0.851 | 3.06 | > 4 | > 4 | > 4 | > 4 | > 4 | 2.7 | 2.21 | > 4 | > 4 | > 4
CCC(=O)N1CCN(c2ccc(-n3c(=O)ccc4cnc5ccc(-c6cnc7ccccc7c6)cc5c43)cc2C(F)(F)F)CC1 [TORIN1] | > 1.2 | 0.0275 | – | > 1.2 | 0.161 | 0.082 | 0.0356 | 0.149 | 0.293 | 0.0265 | 0.078 | > 1.2 | 0.0226 | 0.0376 | 0.0309 | 0.132 | 0.364 | 0.00225
Cc1cc(Nc2cc(N3CCN(C)CC3)nc(Sc3ccc(NC(=O)C4CC4)cc3)n2)n[nH]1 [TOZASERTIB] | > 2 | > 2 | – | > 2 | 1.21 | > 2 | 0.863 | 1.07 | > 2 | 1.87 | > 2 | > 2 | 0.16 | 0.00338 | > 2 | > 2 | > 2 | 0.338
